Source: ChEMBL document CHEMBL5584226, “α-Fluorination of tropane compounds and its impact on physicochemical and ADME properties” (Bioorg Med Chem Lett, 2024)
Values after ≈ are worked out from the molar mass of the structure shown.

Legend:
[1] = Aqueous solubility of the compound in JP1 at pH 1.2; assay type: physicochemical; details: JP1, pH 1.2
[2] = Microsomal stability in human liver microsomes assessed as parent compound remaining measured after 15 mins; assay type: ADME, Microsome; details: read-out: Stability
[3] = target: Sodium channel protein type 5 subunit alpha (Homo sapiens, UniProt Q14524); assay: Inhibition of Nav1.5 (unknown origin)
[4] = Dissociation constant, pKa of the compound; assay type: physicochemical
[5] = target: Voltage-gated inwardly rectifying potassium channel KCNH2 (Homo sapiens, UniProt Q12809); assay: Inhibition of hERG; assay type: toxicity
[6] = Aqueous solubility of the compound in PBS buffer at pH 7.4; assay type: physicochemical
P-gp (ABCB1) = P-gp (ABCB1) (Homo sapiens, UniProt P08183); assay: Substrate activity at P-gp (unknown origin) assessed as efflux ratio; assay type: ADME; details: not told
[7] = Permeability of the compound by PAMPA method; assay type: ADME; details: read-out: permeability

Chain of Sodium channel protein type 5 subunit alpha (Q14524 whole entry): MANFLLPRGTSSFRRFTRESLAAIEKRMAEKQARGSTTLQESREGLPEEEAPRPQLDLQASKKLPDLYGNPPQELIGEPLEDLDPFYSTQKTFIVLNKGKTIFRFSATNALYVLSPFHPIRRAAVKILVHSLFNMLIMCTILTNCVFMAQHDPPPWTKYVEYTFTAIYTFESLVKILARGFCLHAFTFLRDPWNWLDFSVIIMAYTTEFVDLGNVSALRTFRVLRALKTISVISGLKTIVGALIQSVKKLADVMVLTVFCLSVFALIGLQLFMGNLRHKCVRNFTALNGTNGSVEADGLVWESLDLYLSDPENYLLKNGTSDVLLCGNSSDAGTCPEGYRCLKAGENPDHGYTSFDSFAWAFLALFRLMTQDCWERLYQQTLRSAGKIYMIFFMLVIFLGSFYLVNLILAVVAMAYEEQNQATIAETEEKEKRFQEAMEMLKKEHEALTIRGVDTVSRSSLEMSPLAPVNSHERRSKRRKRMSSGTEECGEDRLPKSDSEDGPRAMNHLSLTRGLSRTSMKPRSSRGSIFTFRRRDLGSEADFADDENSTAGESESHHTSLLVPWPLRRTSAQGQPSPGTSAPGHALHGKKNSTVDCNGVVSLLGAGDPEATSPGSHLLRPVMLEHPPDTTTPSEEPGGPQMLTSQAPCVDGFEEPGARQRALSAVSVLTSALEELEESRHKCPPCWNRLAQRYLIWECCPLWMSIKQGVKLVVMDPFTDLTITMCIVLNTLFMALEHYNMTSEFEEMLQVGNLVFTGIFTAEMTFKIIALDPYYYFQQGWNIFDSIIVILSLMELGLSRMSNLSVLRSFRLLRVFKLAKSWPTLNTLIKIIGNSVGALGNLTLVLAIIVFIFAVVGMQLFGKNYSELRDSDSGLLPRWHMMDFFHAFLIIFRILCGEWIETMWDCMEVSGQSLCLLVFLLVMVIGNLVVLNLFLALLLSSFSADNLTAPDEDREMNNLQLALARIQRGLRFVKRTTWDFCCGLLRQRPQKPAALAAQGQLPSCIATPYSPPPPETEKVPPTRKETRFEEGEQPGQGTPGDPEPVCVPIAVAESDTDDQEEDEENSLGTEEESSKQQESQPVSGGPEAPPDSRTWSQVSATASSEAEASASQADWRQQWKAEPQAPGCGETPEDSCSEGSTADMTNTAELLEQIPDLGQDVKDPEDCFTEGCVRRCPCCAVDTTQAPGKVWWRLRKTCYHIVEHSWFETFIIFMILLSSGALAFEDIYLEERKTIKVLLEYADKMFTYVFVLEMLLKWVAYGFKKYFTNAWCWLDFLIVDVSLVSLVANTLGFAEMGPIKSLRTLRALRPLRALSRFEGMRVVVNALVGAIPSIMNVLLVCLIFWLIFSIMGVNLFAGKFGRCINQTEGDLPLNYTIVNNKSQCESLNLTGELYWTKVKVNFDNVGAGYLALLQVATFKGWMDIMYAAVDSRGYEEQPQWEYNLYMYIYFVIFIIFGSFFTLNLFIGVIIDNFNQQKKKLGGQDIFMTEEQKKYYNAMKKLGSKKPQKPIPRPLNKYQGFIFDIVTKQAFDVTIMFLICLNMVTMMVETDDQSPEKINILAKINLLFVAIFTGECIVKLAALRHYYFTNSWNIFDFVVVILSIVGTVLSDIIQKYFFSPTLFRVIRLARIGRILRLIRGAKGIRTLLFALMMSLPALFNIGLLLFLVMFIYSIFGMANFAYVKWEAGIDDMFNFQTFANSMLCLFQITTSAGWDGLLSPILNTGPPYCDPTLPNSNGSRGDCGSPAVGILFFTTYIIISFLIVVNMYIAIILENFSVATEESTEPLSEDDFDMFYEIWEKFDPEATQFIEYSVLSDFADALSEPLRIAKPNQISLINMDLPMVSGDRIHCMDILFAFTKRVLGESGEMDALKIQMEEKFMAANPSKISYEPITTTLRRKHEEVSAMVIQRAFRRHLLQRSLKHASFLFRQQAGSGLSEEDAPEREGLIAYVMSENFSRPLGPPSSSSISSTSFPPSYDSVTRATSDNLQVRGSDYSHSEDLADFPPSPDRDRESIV
Chain of P-gp (ABCB1) (P08183 whole entry): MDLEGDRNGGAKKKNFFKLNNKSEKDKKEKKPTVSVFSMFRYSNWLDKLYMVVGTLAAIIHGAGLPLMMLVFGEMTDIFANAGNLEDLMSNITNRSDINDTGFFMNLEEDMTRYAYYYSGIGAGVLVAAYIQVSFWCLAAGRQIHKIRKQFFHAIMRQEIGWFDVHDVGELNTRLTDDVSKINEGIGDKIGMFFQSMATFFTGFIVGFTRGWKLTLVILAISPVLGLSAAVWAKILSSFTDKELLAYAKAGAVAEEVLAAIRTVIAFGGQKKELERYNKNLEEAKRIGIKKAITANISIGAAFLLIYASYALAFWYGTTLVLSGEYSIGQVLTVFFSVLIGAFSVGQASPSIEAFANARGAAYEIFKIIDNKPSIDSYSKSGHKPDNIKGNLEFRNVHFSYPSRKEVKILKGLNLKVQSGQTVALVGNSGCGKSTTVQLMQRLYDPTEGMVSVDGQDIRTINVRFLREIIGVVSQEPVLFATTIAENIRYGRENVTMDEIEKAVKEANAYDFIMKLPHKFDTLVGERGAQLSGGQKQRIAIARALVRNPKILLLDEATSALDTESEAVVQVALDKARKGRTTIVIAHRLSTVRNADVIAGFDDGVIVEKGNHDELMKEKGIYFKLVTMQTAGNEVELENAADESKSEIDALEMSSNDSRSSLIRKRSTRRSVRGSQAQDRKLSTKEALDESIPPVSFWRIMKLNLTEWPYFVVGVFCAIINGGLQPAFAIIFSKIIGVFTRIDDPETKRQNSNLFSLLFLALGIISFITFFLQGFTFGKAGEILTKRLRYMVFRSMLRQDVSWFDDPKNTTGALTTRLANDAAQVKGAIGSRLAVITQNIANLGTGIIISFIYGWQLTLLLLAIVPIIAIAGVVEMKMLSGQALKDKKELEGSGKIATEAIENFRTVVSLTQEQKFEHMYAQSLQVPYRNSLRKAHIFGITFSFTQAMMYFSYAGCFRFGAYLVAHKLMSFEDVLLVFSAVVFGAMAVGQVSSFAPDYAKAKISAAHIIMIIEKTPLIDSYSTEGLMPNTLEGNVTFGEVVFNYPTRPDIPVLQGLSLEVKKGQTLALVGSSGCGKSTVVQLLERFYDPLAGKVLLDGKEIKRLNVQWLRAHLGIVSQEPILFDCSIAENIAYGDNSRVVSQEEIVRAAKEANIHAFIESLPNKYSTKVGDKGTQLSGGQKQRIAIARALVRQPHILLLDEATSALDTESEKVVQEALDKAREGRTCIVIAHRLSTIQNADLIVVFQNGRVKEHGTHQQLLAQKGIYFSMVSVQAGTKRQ
Chain of Voltage-gated inwardly rectifying potassium channel KCNH2 (Q12809 whole entry): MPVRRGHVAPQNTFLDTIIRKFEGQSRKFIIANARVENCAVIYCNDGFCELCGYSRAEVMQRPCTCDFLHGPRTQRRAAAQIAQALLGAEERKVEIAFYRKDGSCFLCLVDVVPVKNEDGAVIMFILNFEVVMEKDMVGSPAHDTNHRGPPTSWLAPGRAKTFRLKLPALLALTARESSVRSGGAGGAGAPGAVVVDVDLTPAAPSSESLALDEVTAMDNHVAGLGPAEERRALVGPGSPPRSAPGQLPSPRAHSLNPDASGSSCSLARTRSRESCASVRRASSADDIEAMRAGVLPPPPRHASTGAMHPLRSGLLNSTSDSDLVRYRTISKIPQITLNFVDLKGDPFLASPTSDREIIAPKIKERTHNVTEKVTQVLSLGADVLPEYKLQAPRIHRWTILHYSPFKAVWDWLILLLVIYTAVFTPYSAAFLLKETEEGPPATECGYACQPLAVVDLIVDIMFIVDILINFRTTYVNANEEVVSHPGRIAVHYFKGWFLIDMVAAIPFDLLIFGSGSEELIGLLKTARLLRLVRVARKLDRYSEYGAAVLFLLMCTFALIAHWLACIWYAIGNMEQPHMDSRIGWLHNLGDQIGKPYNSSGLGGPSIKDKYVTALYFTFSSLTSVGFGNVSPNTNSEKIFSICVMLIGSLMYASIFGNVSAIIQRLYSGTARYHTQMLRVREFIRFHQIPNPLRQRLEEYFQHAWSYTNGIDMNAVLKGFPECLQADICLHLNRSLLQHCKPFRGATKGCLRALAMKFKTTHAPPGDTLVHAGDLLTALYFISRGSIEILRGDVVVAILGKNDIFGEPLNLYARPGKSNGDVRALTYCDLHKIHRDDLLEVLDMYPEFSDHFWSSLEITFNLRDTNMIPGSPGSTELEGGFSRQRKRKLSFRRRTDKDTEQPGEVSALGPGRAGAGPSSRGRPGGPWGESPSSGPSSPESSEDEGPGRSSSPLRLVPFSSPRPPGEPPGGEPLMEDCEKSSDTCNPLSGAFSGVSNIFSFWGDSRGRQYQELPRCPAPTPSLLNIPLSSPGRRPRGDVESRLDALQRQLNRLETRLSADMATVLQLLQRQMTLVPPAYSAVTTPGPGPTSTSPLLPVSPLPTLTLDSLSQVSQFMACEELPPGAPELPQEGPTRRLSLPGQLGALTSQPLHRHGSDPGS

SMILES | solubility [1] [µM] | remaining at 0.25 h [2] [%] | IC50 [3] [µM] | pKa [4] | IC50 [5] [µM] | solubility [6] [µM] | efflux ratio (P-gp (ABCB1)) | Papp [7] [×10⁻⁶ cm/s]
O=c1n(CCCN2C3CCC2(F)CC(OCc2ccccc2F)C3)nc2ccccn12 (stereo not drawn) | ≥ 100 | 10.7 | > 30 | 5.4 | 7.6 | 73 (≈ 31.3 µg/mL) | 0.96 | 10.6
O=c1n(CCCN2C3CCC2(F)CC(OCc2ccccc2F)C3)nc2n1CCC2 (stereo not drawn) | ≥ 100 | 31.8 | > 30 | – | > 30 | 96 (≈ 40.2 µg/mL) | 1.39 | 7.78
O=c1n(CC(F)CN2C3CCC2CC(OCc2ccccc2F)C3)nc2n1CCC2 (stereo not drawn) | 79 (≈ 33.1 µg/mL) | 92.3 | 13.4 | – | 22.2 | 82 (≈ 34.3 µg/mL) | 2.52 | 4.44
O=c1n(CC(O)CN2C3CCC2CC(OCc2ccccc2F)C3)nc2ccccn12 (stereo not drawn) | ≥ 100 | 82 | 11.9 | – | 1.2 | 95 (≈ 40.5 µg/mL) | 6.36 | 2.16
O=c1n(CCCN2C3CCC2CC(OCc2ccccc2F)C3)nc2ccccn12 (stereo not drawn) | ≥ 100 | 70.9 | 3 | 8.7 | 0.11 | 99 (≈ 40.6 µg/mL) | 3.39 | 4.93
O=c1n(CCCN2C3CCC2CC(COc2ccccc2F)C3)nc2ccccn12 (stereo not drawn) | ≥ 100 | 45.6 | 6 | – | 0.07 | 95 (≈ 39 µg/mL) | 3.07 | 4.86
O=c1n(CCCN2C3CCC2CC(OCc2ccccc2F)C3)nc2n1CCC2 (stereo not drawn) | ≥ 100 | 95.8 | 5.9 | – | 5.2 | ≥ 100 | 19.4 | 1.62
O=c1n(CC(O)CN2C3CCC2CC(OCc2ccccc2F)C3)nc2n1CCC2 (stereo not drawn) | ≥ 100 | 99.8 | 12.9 | – | 19.7 | 94 (≈ 39.2 µg/mL) | 9.16 | 0.46
O=c1n(CC(F)CN2C3CCC2CC(OCc2ccccc2F)C3)nc2ccccn12 (stereo not drawn) | ≥ 100 | 66.9 | 17.8 | 8.1 | 1.8 | 82 (≈ 35.1 µg/mL) | 1.27 | 10.6
O=c1n(CCCN2C3CCC2(F)CC(COc2ccccc2F)C3)nc2ccccn12 (racemic) | ≥ 100 | 34.7 | > 30 | – | > 30 | 61 (≈ 26.1 µg/mL) | 1.34 | 11.1
